Experimental data reported in PMC11404609, “Gut microbiota-mediated C-sulfonate metabolism impairs the bioavailability and anti-cholestatic efficacy of andrographolide” (Gut Microbes, 2024).

Tests used:
[1] = Plasma pharmacokinetics of AP after oral administration in mice; assay type: in vivo; settings: for Fr (%) relative oral bioavailability / AUC(0-inf) / AUC(0-t) / Cmax / Tmax / half-life: AP 100 mg/kg oral gavage; for AUC(0-inf) / AUC(0-t) / Cmax / Tmax / half-life: mouse, plasma, po, 100 mg/kg, mean ± SD
Description: Mice were orally administered APS reductase inhibitor bromocriptine mesylate (20 mg/kg, p.o.) or Na2SO4 (200 mg/kg, p.o.) or saline solution 1 week prior to AP treatment (a single dose of AP at 100 mg/kg, p.o.). Blood samples (50 μL) were collected at predetermined time points (0, 10, 20, 40, 60, 90, 120, 240, 360 min). In specific cases, mice were orally administrated with D. piger suspension (0.2 mL, 1 × 10^9 CFU/mL) or saline solution by oral gavage for 2 weeks before AP treatment (a single dose of AP at 100 mg/kg, p.o.).
The pharmacokinetic parameters of AP including peak time (Tmax), maximum concentration (Cmax), area under the curve from zero time to the last time point measured (AUC0-t), area under the curve from zero time to infinity (AUC0-∞), and elimination half-life (t1/2) were estimated using DAS 2.0 software (Shanghai, China). The relative oral bioavailability (Fr) of AP was calculated by the following equation: Fr(%)=AUC0−∞of ABX/Inhibitor/SO42−/D.piger/AUC0−∞of Control×100%
An ACQUITY^TM UPLC-MS/MS system equipped with an ACQUITY^TM UPLC BEH C18 Column (50 × 2.1 mm I.D., 1.7 μm, Waters, Milford, MA, USA) was utilized for the quantification of AP and APM as previously described.[47] Briefly, the detection samples (50 μL) were mixed with 50 μL of IS (50 ng/mL). AP and APM were extracted by 400 μL cold methanol. Supernatants were dried under nitrogen stream. Then, the residue was dissolved with 50% methanol in water, centrifuged for 30 min at 13,000 rpm, and 10 µL of the supernatant was subjected to UPLC-MS/MS analysis. The mobile phases consisted of eluent A (water) and eluent B (methanol) with a gradient elution as follows: 0–0.8 min, 10% B; 0.8–1.2 min, 10–90% B; 1.2–5.0 min, 90% B; 5.0–5.5 min, 90–10% B; 5.5–7.0 min, 10% B. The flow rate was 0.3 mL/min and the injection volume of all samples was 10 μL. The quantification of AP, APM and IS was performed by UPLC-MS/MS using an MRM method with the transitions of m/z 349.1→m/z 287.2 for AP, m/z 413.2→m/z 287.2 for APM, m/z 269→m/z 133 for IS.

D. piger = assay type: in vitro ADME, Desulfovibrio piger
Description: The cecum contents from mice were collected and mixed with sterilized anaerobic medium in a ratio of 1.0 g to 10 mL, with gentle agitation. After filtered, the mixed medium containing the intestinal flora was placed in an anaerobic environment and preincubated at 37°C for 30 min before use. Mixed medium with or without APS reductase inhibitor bromocriptine mesylate (20 μg/mL) was incubated with AP (10 μg/mL), while autoclaved mixed medium without APS reductase inhibitor served as the control. Incubation was performed in a shaking incubator at 37°C for 6 h, with strict maintenance of anaerobic condition throughout the process.[44] Similarly, D. piger (0.2 mL, 1 × 10^8 CFU/mL) with or without inhibitor, was incubated with AP for 0, 3, 6, and 12 h, with autoclaved D. piger without inhibitor serving as the control. […] And then samples were analyzed by UPLC-MS/MS to detect the concentrations of AP and APM. Concentrations of APS reductase and HSO3^− were also determined at the end of incubation.
For the determination of APS reductase concentration, the supernatant from mouse cecum contents and the D. piger strain were assessed using microorganism APS reductase elisa assay kit (Shanghai Senxingyan Biotechnology Co., Ltd., China), following the instructions provided with the kit. […] Subsequently, the absorbance of the resulting solutions was measured at a wavelength of 560 nm after 40 min.

[2] = In-situ single-pass intestinal perfusion of AP; assay type: in vivo; settings: rats, AP 20 μM co-perfused with Na2SO4 40 μM vs AP alone
Description: The rat intestinal perfusion experiment was conducted based on previous literature reports^6, 7. The experimental animals were divided into two groups: Control and SO4^2- groups. Rats were anaesthetised via the intraperitoneal injection of 50% urethane at a dose of 2.4 mL/kg. Two segments of the intestine, specifically the duodenum and jejunum, each measuring 5-10 cm in length, were cannulated simultaneously. The primary tube was affixed to a syringe controlled by an infusion pump (Model PHD2000 Harvard Apparatus, Cambridge, Massachusetts). The inlet cannula was insulated and maintained in a constant temperature of 37°C in circulating water bath to ensure the perfusate’s thermal stability. Following the surgical procedure, the two segments of Control group were perfused with 20 μM AP, and the two segments of SO4^2- group were co-perfused with AP (20 μM) and Na2SO4 (40 μM). The perfusion was conducted at the flow rate of 0.17 mL/min and perfusate samples were collected every 15 min (15, 30, 45, 60, 75, and 90 min). The concentrations of AP and APM in the perfusate at the outlet were determined through UPLC-MS/MS analysis.

[3] = mice, Control group (Table 3), n = 10
[4] = mice, Control group (Table 4), n = 12
[5] = mice, D. piger group (D. piger suspension by gavage 2 weeks before), n = 12
[6] = mice, Inhibitor group (bromocriptine mesylate 20 mg/kg p.o. 1 week before), n = 10
[7] = mice, SO4^2- group (Na2SO4 200 mg/kg p.o. 1 week before), n = 10

## C=C1CC[C@@H]2[C@](C)(CO)[C@H](O)CC[C@@]2(C)[C@@H]1C/C=C1/C(=O)OC[C@H]1O [AP, Andrographolide]
[1]; mice colonized with D. piger
  reduction in AP bioavailability: 60.11%
[1]; mice, D. piger group vs Control (AUC0-∞ ratio)
  Fr (%) relative oral bioavailability: 39.89%
[1]; mice, Inhibitor group vs Control (AUC0-∞ ratio)
  Fr (%) relative oral bioavailability: 147.48%
[1]; mice, SO4^2- group vs Control (AUC0-∞ ratio)
  Fr (%) relative oral bioavailability: 29.42%
[1]; mice, inhibition of APS reductase by bromocriptine mesylate
  increase in AP bioavailability: 47.48%
[1]; mice, treatment of Na2SO4
  reduction in AP bioavailability: 70.58%
[1]; [3]
  AUC(0-inf): 772 ng·h/mL
  AUC(0-t): 646 ng·h/mL
  Cmax: 500 ± 330 ng/mL
  Tmax: 32 min
  half-life: 146 ± 67.4 min
[1]; [4]
  AUC(0-inf): 1030 ng·h/mL
  AUC(0-t): 909 ng·h/mL
  Cmax: 760 ± 440 ng/mL
  Tmax: 41.7 min
  half-life: 136 ± 65.2 min
[1]; [5]
  AUC(0-inf): 411 ng·h/mL
  AUC(0-t): 374 ng·h/mL
  Cmax: 360 ± 280 ng/mL
  Tmax: 35 min
  half-life: 77.2 ± 38.6 min
[1]; [6]
  AUC(0-inf): 1140 ng·h/mL
  AUC(0-t): 906 ng·h/mL
  Cmax: 970 ± 370 ng/mL
  Tmax: 27 min
  half-life: 146 ± 86.4 min
[1]; [7]
  AUC(0-inf): 227 ng·h/mL
  AUC(0-t): 199 ng·h/mL
  Cmax: 142 ± 30 ng/mL
  Tmax: 17 min
  half-life: 133 ± 104 min
D. piger
  metabolism of AP into APM by D. piger in vitro: time-dependent ability to metabolize AP into APM
[2]
  AP C-sulfonate metabolism: substantial increase
